According to patent publication EP1137632B1, “THIOUREA INHIBITORS OF HERPES VIRUSES” (Wyeth, priority 1998, dated 2000):
In brackets after ≈: the same amount, converted by molar mass. Where two headings read alike, the source gives them in different places.

Columns and labels:
VZV strain Ellen = assay: VZV antiviral (ELISA) assay in human foreskin fibroblast cells; assay type: cell-based, varicella-zoster virus
Procedure: VZV antiviral (ELISA) assay
For the generation of stock VZV to be used in the assay, VZV strain Ellen (ATCC #VR-1367) is used to infect human foreskin fibroblast (HFF) cells at low multiplicity (less than 0.1) and incubated overnight at 37°C in 5% CO2. After the overnight incubation, the mixture of uninfected and VZV-infected HFF infected cells are then harvested and added to each well of 96-well plates (3.5x10^4 cells in 100 µl DMEM supplemented with 2% FBS) which contain test compound or the reference standard drug control (in 100µl DMEM supplemented with 2% FBS per well). These cells are incubated for three days at 37°C in 5% CO2, then fixed for ELISA assay. The primary antibody is murine anti-VZV glycoprotein II monoclonal antibody (Applied Biosystems, Inc. #13-145-100) and the secondary antibody is goat anti-mouse IgG linked to β-galactosidase. Thus the extent of viral replication is determined by assessing β-galactosidase activity by quantifying the generation of the 4-methyl umbelliferone fluorescent cleavage product after addition of the methyl umbelliferyl-β-D-galactoside (Sigma #M1633) substrate on a microfluorimeter (365nm for excitation and 450nm for emission). Antiviral activity (IC50) of the test compound is determined by comparing the flourescence obtained in absence of compound to that obtained in the presence of compound.

[1] = test system: HCMV recombinant mutant virus; assay: microbe, parasite or virus in culture; assay type: cell-based, human cytomegalovirus; details: Human betaherpesvirus 5, read-out: IC50 (ug/ml) HCMV
Source text: Microtiter plate assay. Ninety-six well plate cultures of human foreskin fibroblasts are infected in the presence of inhibitor compound with a HCMV recombinant mutant virus whose genome contains the prokaryotic beta-glucuronidase gene (Jefferson, R. A., S. M. Burgess, and D. Hirsh. 1986. Beta-glucuronidase from Escherichia coli as a gene fusion marker. Proc. Natl. Acad. Sci. USA 83:8447-8451) whose expression is controlled by a viral promoter. An example of such a virus is RV145 (Jones, T. R., V. P. Muzithras, and Y. Gluzman. 1991. Replacement mutagenesis of the human cytomegalovirus genome: US10 and US11 gene products are nonessential. J. Virol. 65:5860-5872). Since it is under the control of a viral promoter, beta-glucuronidase expression is an indirect indicator of growth and replication of HCMV in this assay. At 96 hours post-infection, the infected cell lysates are prepared (using 50mM sodium phosphate [pH7.0] containing 0.1 % Triton X-100 and 0.1% sarkosyl) and assayed for beta-glucuronidase activity using a substrate for the enzyme which when cleaved yields either a product which can be measured colorimetrically in a spectrophotometer or fluorescently in a microfluorimeter. Examples of such substrates are p-nitrophenyl-beta-D-glucuronide and methylumbelliferylglucuronide, respectively. The presence of an antiviral compound is indicated by the reduced expression of the HCMV genome resident beta-glucuronidase gene, compared to the absence of inhibitor. […] Data from this assay generated using varying amounts of inhibitor compound is also used to estimate the IC50 of an inhibitor compound.

HSV-1 = assay: HSV antiviral (ELISA) assay in Vero cells; assay type: cell-based, herpes simplex virus type 1; details: read-out: IC50 (ug/ml) HSV
Procedure: HSV antiviral (ELISA) assay
Vero cells (ATCC #CCL-81) are plated on 96-well tissue culture plates at 3.5x10^4 cells per 100µl tissue culture DMEM (Dulbecco's modified Eagle media) supplemented with 2% fetal bovine serum (FBS) in each well. After overnight incubation @ 37°C (in 5% CO2) and 30 minutes prior to infection with HSV-1 (multiplicity of infection equal to 0.006), cells are either untreated, or treated with test compound (multiple concentrations) or reference standard drug control. After approximately 24 hours post-infection incubation @ 37°C (in 5% CO2), cells are fixed for ELISA assay. The primary antibody is murine anti-HSV glycoprotein D monoclonal primary antibody and the secondary antibody is goat anti-mouse IgG linked to β-galactosidase. Thus the extent of viral replication is determined by assessing β-galactosidase activity by quantifying the generation of the 4-methyl umbelliferone fluorescent cleavage product after addition of the methyl umbelliferyl-β-D-galactoside (Sigma #M1633) substrate on a microfluorimeter (365nm for excitation and 450nm for emission). Antiviral activity (IC50) of the test compound is determined by comparing the flourescence obtained in absence of compound to that obtained in the presence of compound.

[2] = Human alphaherpesvirus 3; VZV strain Ellen in HFF cells; read-out: IC50 (ug/ml) VZV
[3] = Human alphaherpesvirus 1, HSV-1 in Vero cells
[4] = Human alphaherpesvirus 3, Fibroblast; read-out: % inhibition 10 ug/ml VZV
[5] = Human alphaherpesvirus 3, Fibroblast, read-out: % inhibition 10 ug/ml VZV
[6] = Human alphaherpesvirus 3, HFF, read-out: IC50 (ug/ml) VZV

SMILES: CC(NC(=S)Nc1ccc(NC(=O)c2nccc3ccccc23)c(C(F)(F)F)c1)c1ccc(F)cc1 (stereo not drawn) [Example 1066, Isoquinoline-1-carboxylic acid (4-{3-[1-(4-fluoro-phenyl)-ethyl]-thioureido}-2-trifluoromethyl-phenyl)-amide]
- IC50 (VZV strain Ellen; [2]): 0.02 µg/mL (≈ 0.039 µM)
- IC50 [1]: 1.8 µg/mL (≈ 3.51 µM)
- IC50 (HSV-1; [3]): 1.9 µg/mL (≈ 3.71 µM)

SMILES: COc1cc(OC)c(NC(=S)Nc2ccc(NC(=O)c3ccccc3F)c(C)c2)cc1Cl [Example 310, N-{4-[3-(5-Chloro-2,4-dimethoxy-phenyl)-thioureido]-2-methyl-phenyl}-2-fluoro-benzamide]
- inhibition at 10 µg/mL (VZV strain Ellen; [4]): 40%
- IC50 (VZV strain Ellen; [2]): > 10 µg/mL
- IC50 [1]: > 10 µg/mL
- IC50 (HSV-1; [3]): 2 µg/mL (≈ 4.22 µM)

SMILES: CC(NC(=S)Nc1ccc(NC(=O)c2nccc3ccccc23)c(C#N)c1)c1ccc(F)cc1 (stereo not drawn) [Example 1069, Isoquinoline-1-carboxylic acid (2-cyano-4-{3-[1-(4-fluoro-phenyl)-ethyl]-thioureido}-phenyl)-amide]
- IC50 (VZV strain Ellen; [2]): 0.019 µg/mL (≈ 0.0405 µM)
- IC50 [1]: 4 µg/mL (≈ 8.52 µM)
- IC50 (HSV-1; [3]): > 10 µg/mL

SMILES: Cc1cc(NC(=S)NC(C)c2ccc(F)cc2)ccc1NC(=O)c1cc2ccccc2cn1 (stereo not drawn) [Example 1074, Isoquinoline-3-carboxylic acid (4-{3-[1-(4-fluoro-phenyl)-ethyl]-thioureido}-2-methyl-phenyl)-amide]
- IC50 (VZV strain Ellen; [2]): 0.07 µg/mL (≈ 0.153 µM)
- IC50 [1]: 4 µg/mL (≈ 8.72 µM)
- IC50 (HSV-1; [3]): 5.8 µg/mL (≈ 12.6 µM)

SMILES: CC(NC(=S)Nc1ccc(NC(=O)c2ccccc2F)c(C(=O)c2ccccc2)c1)c1ccc(F)cc1 (stereo not drawn) [Example 1044, N-(2-Benzoyl-4-{3-[1-(4-fluoro-phenyl)-ethyl]-thioureido}-phenyl)-2-fluoro-benzamide]
- IC50 (VZV strain Ellen; [2]): 3.3 µg/mL (≈ 6.4 µM)
- IC50 [1]: 1.8 µg/mL (≈ 3.49 µM)
- IC50 (HSV-1; [3]): > 10 µg/mL

SMILES: CC(NC(=S)Nc1ccc(NC(=O)c2ccccc2F)c(Cl)c1)c1ccc(C#N)cc1 (stereo not drawn) [Example 1039, N-(2-Chloro-4-{3-[1-(4-cyano-phenyl)-ethyl]-thioureido}-phenyl)-2-fluoro-benzamide]
- IC50 (VZV strain Ellen; [2]): 0.25 µg/mL (≈ 0.552 µM)
- IC50 [1]: 1.3 µg/mL (≈ 2.87 µM)
- IC50 (HSV-1; [3]): 7.2 µg/mL (≈ 15.9 µM)

SMILES: COc1cc(OC)c(NC(=S)Nc2cc(OC)c(NC(=O)c3ccccc3F)cc2OC)cc1Cl [Example 260, N-{4-[3-(5-Chloro-2,4-dimethoxy-phenyl)-thioureido]-2,5-dimethoxy-phenyl}-2-fluoro-benzamide]
- inhibition at 10 µg/mL (VZV strain Ellen; [5]): 18%
- IC50 (VZV strain Ellen; [6]): 7 µg/mL (≈ 13.5 µM)
- IC50 [1]: > 10 µg/mL
- IC50 (HSV-1; Human alphaherpesvirus 1, Vero): > 10 µg/mL

SMILES: COc1cc(OC)c(NC(=S)Nc2ccc(NC(=O)c3ccccc3F)c(C(=O)O)c2)cc1Cl [Example 338, 5-[3-(5-Chloro-2,4-dimethoxy-phenyl)-thioureido]-2-(2-fluoro-benzoylamino)-benzoic acid]
- inhibition at 10 µg/mL (VZV strain Ellen; [5]): 13%
- IC50 (VZV strain Ellen; [6]): > 10 µg/mL
- IC50 [1]: 35 µg/mL (≈ 69.5 µM)
- IC50 (HSV-1; Human alphaherpesvirus 1, Vero): > 50 µg/mL

SMILES: CC(NC(=S)Nc1ccc(NC(=O)c2ccccc2F)c(OCc2ccccc2)c1)c1ccc(C#N)cc1 (stereo not drawn) [Example 1050, N-(2-Benzyloxy-4-{3-[1-(4-cyano-phenyl)-ethyl]-thioureido}-phenyl)-2-fluoro-benzamide]
- IC50 (VZV strain Ellen; [2]): > 7.5 µg/mL
- IC50 [1]: > 10 µg/mL
- IC50 (HSV-1; [3]): > 10 µg/mL

SMILES: O=C(Nc1ccc(NC(=S)Nc2ccc(NC(=O)c3ccccc3F)cc2)cc1Cl)c1ccccc1 [Example 401, N-{4-[({[4-(Benzoylamino)-3-chloro-phenyl]-amino}-thioxomethyl)-amino]-phenyl}-2-fluoro-benzamide]
- inhibition at 10 µg/mL (VZV strain Ellen; [4]): 70%
- IC50 (VZV strain Ellen; [2]): > 15 µg/mL
- IC50 [1]: 2.5 µg/mL (≈ 4.82 µM)
- IC50 (HSV-1; [3]): > 10 µg/mL

SMILES: COc1cc(OC)c(NC(=S)Nc2ccc(NC(=O)c3ccccc3F)c(OC)c2)cc1Cl [Example 303, N-{4-[3-(5-Chloro-2,4-dimethoxy-phenyl)-thioureido]-2-methoxy-phenyl}-2-fluoro-benzamide]
- inhibition at 10 µg/mL (VZV strain Ellen; [4]): 15%
- IC50 (VZV strain Ellen; [2]): > 10 µg/mL
- IC50 [1]: > 10 µg/mL
- IC50 (HSV-1; [3]): > 10 µg/mL

SMILES: COc1cc(OC)c(NC(=S)Nc2ccc(NC(=O)c3ccccc3F)c(C(F)(F)F)c2)cc1Cl [Example 402, N-{4-[3-(5-Chloro-2,4-dimethoxy-phenyl)-thioureido]-2-trifluoromethyl-phenyl}-2-fluoro-benzamide]
- inhibition at 10 µg/mL (VZV strain Ellen; [4]): 13%
- IC50 (VZV strain Ellen; [2]): > 10 µg/mL
- IC50 [1]: 4 µg/mL (≈ 7.58 µM)
- IC50 (HSV-1; [3]): > 10 µg/mL

SMILES: COc1cc(NC(=O)c2ccccc2F)ccc1NC(=S)Nc1cc(Cl)c(C)cc1OC [Example 418, N-{4-[3-(5-Chloro-2-methoxy-4-methyl-phenyl)-thioureido]-3-methoxy-phenyl}-2-fluoro-benzamide]
- inhibition at 10 µg/mL (VZV strain Ellen; [4]): 10%
- IC50 (VZV strain Ellen; [2]): > 10 µg/mL
- IC50 [1]: 3 µg/mL (≈ 6.33 µM)
- IC50 (HSV-1; [3]): 0.05 µg/mL (≈ 0.105 µM)

SMILES: COc1cc(NC(=O)c2ccccc2F)ccc1NC(=S)Nc1ccc(C)c(Cl)c1 [Example 419, N-{4-[3-(3-Chloro-4-methyl-phenyl)-thioureido]-3-methoxy-phenyl}-2-fluoro-benzamide]
- inhibition at 10 µg/mL (VZV strain Ellen; [4]): 3%
- IC50 (VZV strain Ellen; [2]): > 10 µg/mL
- IC50 [1]: > 10 µg/mL
- IC50 (HSV-1; [3]): 0.2 µg/mL (≈ 0.451 µM)

SMILES: COc1cc(NC(=S)NC(C)c2ccc(F)cc2)c(C)cc1NC(=O)c1ccccc1F (stereo not drawn) [Example 1031, 2-Fluoro-N-(4-{3-[1-(4-fluoro-phenyl)-ethyl]-thioureido}-2-methoxy-5-methyl-phenyl)-benzamide]
- IC50 (VZV strain Ellen; [2]): 0.7 µg/mL (≈ 1.54 µM)
- IC50 [1]: > 10 µg/mL
- IC50 (HSV-1; [3]): > 10 µg/mL

SMILES: Cc1cc(NC(=S)NC(C)c2ccc(F)cc2)ccc1NC(=O)c1ccccc1F (stereo not drawn) [Example 1045, 2-Fluoro-N-(4-{3-[1-(4-fluoro-phenyl)-ethyl]-thioureido}-2-methyl-phenyl)-benzamide]
- IC50 (VZV strain Ellen; [2]): 0.05 µg/mL (≈ 0.118 µM)
- IC50 [1]: 1.5 µg/mL (≈ 3.53 µM)
- IC50 (HSV-1; [3]): 6.2 µg/mL (≈ 14.6 µM)

SMILES: CC(NC(=S)Nc1ccc(NC(=O)c2ccccc2F)c(C(F)(F)F)c1)c1ccc(F)cc1 (stereo not drawn) [Example 1034, 2-Fluoro-N-(4-{3-[1-(4-fluoro-phenyl)-ethyl]-thioureido}-2-trifluoromethyl-phenyl)-benzamide]
- IC50 (VZV strain Ellen; [2]): 0.03 µg/mL (≈ 0.0626 µM)
- IC50 [1]: 2.6 µg/mL (≈ 5.42 µM)
- IC50 (HSV-1; [3]): > 10 µg/mL

SMILES: COc1cc(OC)c(NC(=S)Nc2c(Cl)cc(NC(=O)c3ccccc3F)cc2Cl)cc1Cl [Example 1026, N-{3,5-Dichloro-4-[3-(5-chloro-2,4-dimethoxy-phenyl)-thioureido]-phenyl}-2-fluoro-benzamide]
- IC50 (VZV strain Ellen; [2]): > 10 µg/mL
- IC50 [1]: > 10 µg/mL
- IC50 (HSV-1; [3]): 0.15 µg/mL (≈ 0.284 µM)

SMILES: CC(NC(=S)Nc1ccc(NC(=O)c2ccccc2F)c(C(F)(F)F)c1)c1ccc(C#N)cc1 (stereo not drawn) [Example 1036, N-(4-{3-[1-(4-Cyano-phenyl)-ethyl]-thioureido}-2-trifluoromethyl-phenyl)-2-fluoro-benzamide]
- IC50 (VZV strain Ellen; [2]): 0.31 µg/mL (≈ 0.637 µM)
- IC50 [1]: 2.1 µg/mL (≈ 4.32 µM)
- IC50 (HSV-1; [3]): 4 µg/mL (≈ 8.22 µM)

SMILES: CCCCOc1cc(NC(=S)NC(C)c2ccc(F)cc2)ccc1NC(=O)c1ccccc1F (stereo not drawn) [Example 1055, N-(2-Butoxy-4-{3-[1-(4-fluoro-phenyl)-ethyl]-thioureido}-phenyl)-2-fluoro-benzamide]
- IC50 (VZV strain Ellen; [2]): 0.32 µg/mL (≈ 0.662 µM)
- IC50 [1]: > 10 µg/mL
- IC50 (HSV-1; [3]): > 10 µg/mL

SMILES: COc1cc(OC)c(NC(=S)Nc2ccc(NC(=O)c3ccccc3F)c(C#N)c2)cc1Cl [Example 277, N-{4-[3-(5-Chloro-2,4-dimethoxy-phenyl)-thioureido]-2-cyano-phenyl}-2-fluoro-benzamide]
- inhibition at 10 µg/mL (VZV strain Ellen; [4]): 0%
- IC50 (VZV strain Ellen; [2]): > 10 µg/mL
- IC50 [1]: > 10 µg/mL
- IC50 (HSV-1; [3]): > 10 µg/mL
